Key:
[1] = system: voltage gated Ca2+ channel currents (remaining, predominantly N type, calcium current) in superior cervical ganglion neurons; assay: Ca2+ current measurement, whole cell recording in cultured superior cervical ganglion neurons; type: cell-based; conditions: 5 μM drug coapplied with 10 μM Nimodipine for three minutes; 10 mM Ba2+ as charge carrier; holding potential -80 mV, test potential 0 or +10 mV; Hydrochloride
Method: Lett., 77, 55-60 (1987). Cells were plated onto laminin coated plastic tissue culture dishes and incubated at 37° C. until just prior to recording. Electrophysiological recordings were performed from 2 to 9 days after dissociation. The pipette (internal solution) contained in mM: CsCl, 130; HEPES, 10; EGTA, 10; MgCl2, 4; ATP, 2; buffered to pH 7.2 with CsOH. Cells were bathed in a normal Tyrodes solution before establishment of whole cell recording when the bathing solution was changed to one allowing isolation of Ca^2+ currents. The external solution for recording Ca^2+ channel currents contained in mM: BaCl2, 10; TEA-Cl, 130; glucose, 10; HEPES, 10; MgCl2, 1; buffered to pH 7.3 with TEA-OH. […] Whole cell currents were recorded using List EPC-7 amplifiers and stored, digitised for later analysis using PC based software similar to that described previously (Benham & Tsien, Journal of Physiology (1988), 404, 767-784). Peak voltage gated Ca^2+ channel currents of up to 10 nA were recorded using 10 mM Ba^2+ as charge carrier. […] The rundown rate was measured in control conditions and extrapolated through the time of drug application to derive a rundown corrected control value. Once a constant calcium current had been recorded for 4 successive pulses (1 minute) 10 μM Nimodipine, a dihydropyridine, was applied to the cell to block L type calcium current. […]

[2] = system: histological damage in the CA1 region of the hippocampus after carotid artery occlusion; assay: Gerbil BCAO model; type: in vivo, Mongolian gerbils; conditions: 6 min carotid occlusion, 15 mg.kg-1 i.p. 30 minutes post-ischaemia then 5 mg.kg-1 b.i.d. for 3 days, histology on 5th day
Method: Male Mongolian gerbils weighing between 60-80 g were anaesthetised with halothane, placed on a heated mat and the carotid arteries occluded for 6 min. After reperfusion, the animals were sutured and placed in an incubator for 2 hours to maintain body temperature during the acute recovery phase. The animals were then caged separately and on the 5th day after the day of surgery they were euthanased and the brains removed for histological analysis. The dosing protocol in these experiments was 15 mg.kg^-1 30 minutes post-ischaemia then 5 mg.kg^-1 b.i.d. for 3 days. Injections were given via the i.p. route, and the vehicle was distilled water.

[3] = system: histological damage in the cerebral cortex after mid-cerebral artery occlusion; assay: Mouse MCAO model; type: in vivo, CD1 mice; conditions: 10 mg.kg-1 i.p. 30 minutes post-ischaemia then 10 mg.kg-1 b.i.d. for 3 days, histology on 4th day
Method: Male CD1 mice weighing 25-29 g were anaesthetised with tribromoethanol, placed on a heat-pad and maintained at 37° C. The mid-cerebral artery was cauterised and divided via the intra-cranial route. On completion of surgery the mice were placed in an incubator for 2 hours to maintain body temperature during the acute recovery phase. On the 4th day the mice were euthanased and the brains removed for histological analysis. The dosing protocol in these experiments was 10 mg.kg^-1 30 minutes post-ischaemia then 10 mg.kg^-1 b.i.d. for 3 days. Injections were given via the i.p. route, and the vehicle was distilled water.

Row | SMILES | inhibition of plateau Ca2+ current [1] | attenuation of histological damage in the CA1 region of the hippocampus compared with ischaemic vehicle-treated animals [2] | attenuation of histological damage in the cerebral cortex compared with ischaemic vehicle-treated animals [3]
1 | CN[C@H]1Cc2ccccc2[C@H]1Cc1ccc(Cl)c(Cl)c1.Cl (single isomer, unassigned) [Example 1, (+)cis-1-(3,4-Dichlorobenzyl)-2-methylaminoindane Hydrochloride] | 95% | significant attenuation of the histological damage | significant attenuation of the histological damage
2 | CN[C@H]1Cc2ccccc2[C@H]1Cc1ccc(Cl)c(Cl)c1.Cl (single isomer, unassigned) [Example 2, (-)cis-1-(3,4-Dichlorobenzyl)-2-methylaminoindane Hydrochloride] | 99% | significant attenuation of the histological damage | significant attenuation of the histological damage

Reference: US5863952A, “Enantiomers of 1-(3,4-dichlorobenzyl)-2-methylaminoindane” (SmithKline Beecham plc, priority 1995, dated 1999)
